Measurements published in PubChem BioAssay AID1159564 (GlaxoSmithKline (GSK), 2015).
The source made the active and inactive calls. How the calls were made is not given here.

Tested on: L. donovani-infected THP-1 macrophages, intracellular amastigote imaging
Assay: intracellular L. donovani amastigote inhibition, imaging, THP-1 host macrophages, host toxicity (AID 1159564)
[1] = measured here: THP-1 host cell toxicity
[2] = measured here: amastigotes per macrophage

SMILES | IC50 | IC50 [1] [µM] | IC50 [2] [µM]
Cc1nc(-c2ccc3c(c2)OCO3)sc1C(=O)NCc1ccc2c(c1)OCO2 | 0.25 µM | > 50 | 0.79
Cn1nc(C(=O)N2CCc3ccccc32)c2c1CCS(=O)(=O)C2 | 4 µM | > 50 | 1.6
O=c1ccc2ccc(F)c3c2n1C[C@H]3CN1CCC(NCc2cc3ccccc3o2)CC1 | 20 µM | 32 | 13
CC(C)(C)Nc1nc(-c2ccccn2)nc2ccccc12 | 1.6 µM | 16 | 1.3
COc1cc(Cl)c(C)cc1NC(=O)c1ccc([N+](=O)[O-])s1 | 6.3 µM | > 50 | 5
CCCc1cc(C(=O)Nc2ncc(-c3cccc(Br)c3)n2C)n[nH]1 | 5 µM | 32 | 4
Cn1ccnc1-c1nc(NCc2ccccc2Cl)cc(C2CC2)n1 | 0.63 µM | 7.9 | 0.2
CC(Cn1ccnc1)NC(=O)C1CC1c1cccc(Cl)c1Cl (configuration not stated) | > 50 µM (inactive) | > 50 | 10
C[C@@H](Oc1cc(-n2cnc3cc(N)ccc32)sc1C(N)=O)c1ccccc1Cl | 32 µM | 25 | 20
O=C(NC(c1ccc(Cl)cc1)c1cnccn1)C1CCN(C(=O)Nc2cccc(C(F)(F)F)c2)CC1 (configuration not stated) | > 50 µM (inactive) | 40 | > 50
CN(C)S(=O)(=O)c1ccc(Cl)c(C(=O)Nc2nc(-c3ccccn3)cs2)c1 | 10 µM | 6.3 | 5
CN(C)S(=O)(=O)c1cccc(CSc2nnc(-c3ccc4c(c3)OCO4)o2)c1 | 2 µM | > 50 | 0.63
COc1ccc(C(=O)N2CCC(Nc3cccnc3)C2)c(OC)n1 (configuration not stated) | > 50 µM (inactive) | > 50 | > 50
CCOc1cnn(C)c(=O)c1Nc1ccc(C(=O)NCc2ccc(F)cc2)cc1 | > 50 µM (inactive) | 32 | > 50
COc1ccc(-c2cc(C)no2)cc1S(=O)(=O)Nc1ccc(F)c(Cl)c1 | 25 µM | 32 | 20
COCc1cnc2c(c1SCc1c(F)cccc1Cl)c(=O)n(C)c(=O)n2C | 5 µM | > 50 | 5
Cc1ccc2onc(Nc3ccnc(Nc4cccc(S(C)(=O)=O)c4)n3)c2c1 | 2 µM | 20 | 1
O=C(Nc1ccccc1C(=O)Nc1ccccn1)c1ccco1 | > 50 µM (inactive) | > 50 | > 50
CCn1c(NC(=O)Cc2ccc(F)cc2)nc2ccccc21 | 10 µM | > 50 | 6.3
Cc1ccccc1CNC(=O)CN(Cc1ccccn1)Cc1ccccn1 | 6.3 µM | > 79 | 4
Nc1nc(-c2ccccn2)nc(N)c1Cc1c(F)cccc1Cl | 1.3 µM | 32 | 1
COc1ccc(NS(=O)(=O)c2ccc(S(=O)(=O)N(C)C3CCCCC3)cc2)c2ncccc12 | 0.32 µM | > 50 | 0.16
O=C(NC1CCN(C2Cc3ccc(NS(=O)(=O)c4cc(F)cc(F)c4)cc3C2)CC1)C1CC1 (configuration not stated) | > 50 µM (inactive) | 13 | 13

SMILES | IC50 | IC50 [1] [µM] | IC50 [2] [µM]
N#Cc1ccccc1S(=O)(=O)N1CCN(C(=O)CNC(=O)c2ccc3c(c2)OCO3)CC1 | 5 µM | > 50 | 1.6
Cc1ccccc1OCC(=O)N1CCCN(c2cccnn2)CC1 | > 50 µM (inactive) | > 50 | > 50
COc1ccc2nccc([C@H](O)CN3CC[C@H](NC(=O)c4ccc(Br)cc4)[C@@H](O)C3)c2n1 | > 50 µM (inactive) | > 50 | > 50
O=C(CN(Cc1ccccn1)Cc1ccccn1)NC1Cc2ccccc2C1 | 5 µM | > 79 | 5
COc1ccc(NS(=O)(=O)c2cc(NC(=O)Cc3ccc(C)cc3)ccc2N2CCOCC2)cc1 | > 50 µM (inactive) | > 50 | > 50
COc1ccc(-c2nc3ncccc3o2)cc1NC(=O)c1cccs1 | > 50 µM (inactive) | 20 | > 50
CCn1nccc1CN(C)C(=O)C=Cc1ccc(Cl)cc1 | > 50 µM (inactive) | > 50 | > 50
COc1ccc(C(=O)Nc2c(C)nn(COc3cccc(C(F)(F)F)c3)c2C)cc1 | > 50 µM (inactive) | 32 | > 50
CC(=O)Nc1ccc(CN2CCC(N3CC(c4ccccc4)(c4ccccc4)OCC3=O)CC2)cc1 | 25 µM | 40 | 20
COc1ccccc1C=CCN1C[C@H]2CCC[C@@H](C1)C2(O)c1cccnc1 (some centres not stated) | > 50 µM (inactive) | 40 | 32
NC(=O)c1cc(F)ccc1Nc1nc(NC2CCC(O)CC2)ncc1Br (configuration not stated) | 0.79 µM | 0.4 | 0.63
Cc1nn(-c2nc(N)nc(-c3ccccn3)n2)c(C)c1Cc1ccccc1 | 3.2 µM | > 50 | 2.5
c1ccc(Nc2nc3ccccc3[nH]2)nc1 | 7.9 µM | 25 | 7.9
COc1ccc2ncc(F)c(CCN3CC[C@@H](NC(=O)c4cc5c(s4)CCC5)[C@@H](O)C3)c2n1 | 6.3 µM | 25 | 1.3
Cc1cccnc1CN1CCN(CCCOc2ccc(-c3ccc(C(N)=O)cc3)cc2)CC1 | 32 µM | 13 | 10
Cc1[nH]nc(C(F)(F)F)c1NC(=O)CCn1cc(Cl)c([N+](=O)[O-])n1 | > 50 µM (inactive) | 16 | > 50
COc1cccc(NS(=O)(=O)c2ccc3[nH]cc(C(=O)NCCC(C)C)c(=O)c3c2)c1 | > 50 µM (inactive) | > 50 | > 50
CCN(CC)c1ccc(S(=O)(=O)N(CC)CC)c2nonc12 | 0.4 µM | 16 | 0.13
O=C(Nc1ccc(Br)c(Cl)c1)Nc1ccc2c(c1)OCO2 | > 50 µM (inactive) | > 50 | > 50
Cc1cc2ncn(-c3ccc([N+](=O)[O-])cc3C#N)c2cc1C | > 50 µM (inactive) | > 50 | > 50
Cc1cc(N(C)C)nc(Nc2ccccc2C)n1 | 32 µM | 40 | 16
O=c1ccn(-c2ccc([N+](=O)[O-])cc2Cl)c2ccc(F)cc12 | > 50 µM (inactive) | > 50 | > 50
COc1ccc(Nc2nc(-c3ccccn3)cc(N3CCCC(O)C3)n2)cc1 (configuration not stated) | 1 µM | 25 | 0.79

SMILES | IC50 | IC50 [1] [µM] | IC50 [2] [µM]
O=C(NCc1nnc2n1CCCCC2)c1csc(-c2ccccc2)n1 | > 50 µM (inactive) | > 50 | > 50
NCC(Cc1ccccc1)NC(=O)c1cnc(-c2c[nH]c3ncccc23)s1 (configuration not stated) | 16 µM | 6.3 | 13
CCOc1ccc(N(C)S(=O)(=O)c2ccc3[nH]cc(C(=O)NC4CCCC4)c(=O)c3c2)cc1 | 32 µM | 25 | 32
CC(C)Nc1nccc(-c2c(-c3ccc(F)cc3)ncn2C2CCOCC2)n1 | 25 µM | > 50 | 16
CCN(CC)c1nc(Nc2ccncc2)nc2ccccc12 | 6.3 µM | 25 | 2
Cc1cc(Nc2cc(C3CC3)[nH]n2)nc(N2CCC[C@H]2C(N)=O)n1 | 0.2 µM | 0.13 | 0.079
Cc1nn(-c2nc3ccccc3s2)c2c1C(c1ccc(OCC(N)=O)cc1)SCC(=O)N2 (configuration not stated) | > 50 µM (inactive) | > 50 | > 50
CC(C)(C)c1csc(NC(=O)c2ccc([N+](=O)[O-])s2)n1 | 3.2 µM | > 50 | 2.5
CC(c1cc(Cl)cc(Cl)c1)N(C)c1ncc2c(N)nc(N)nc2n1 (configuration not stated) | 0.79 µM | 32 | 0.25
O=C(CN(Cc1ccccn1)Cc1ccccn1)NCc1ccc2c(c1)OCO2 | 7.9 µM | > 79 | 6.3
O=C1CSC(c2cccnc2)N1c1ccc(Cl)cc1Cl (configuration not stated) | > 50 µM (inactive) | > 50 | > 50
CC(=O)NCCNc1cc(-c2ccnc(Nc3cccc(Cl)c3)n2)ccn1 | 0.25 µM | 0.1 | 0.1
O=S(=O)(NCC(c1cccnc1)N1CCN(c2ccc(F)cc2)CC1)c1cccs1 (configuration not stated) | > 50 µM (inactive) | > 50 | > 50
Cc1nc2c(-c3n[nH]c(-c4ccccc4N)n3)cccn2c1C | 1.6 µM | 7.9 | 1
CC(Cn1ccnc1)NC(=O)COc1ccc(Cl)c(Cl)c1 (configuration not stated) | > 50 µM (inactive) | > 50 | > 50
Cc1cc2nc(CN(C)Cc3ncccc3C)[nH]c2cc1C | 0.63 µM | 7.9 | 0.5
COc1ccc(CN2C(=O)C(O)(CC(=O)c3ccncc3)c3cc(Br)ccc32)cc1OC (configuration not stated) | 25 µM | 40 | 20
Cn1nccc1-c1cc(OC(CN)c2ccccc2)cnc1-c1ccco1 (configuration not stated) | > 50 µM (inactive) | 16 | 32
CS(=O)(=O)N1CCC(Nc2ncc(Br)c(Nc3cccc(F)c3C(N)=O)n2)CC1 | 1.6 µM | 1 | 0.79
CCN(CC)S(=O)(=O)c1ccc(Cn2nc(C(=O)Nc3ccncn3)c3ccccc32)cc1 | > 50 µM (inactive) | > 50 | > 50
COc1ccc(C2=NCC(CSc3nnc(-c4ccc5c(c4)OCO5)o3)S2)cc1 (configuration not stated) | 1 µM | > 50 | 0.4
CCc1cccc(CC)c1-n1c(SCC(=O)NC(=O)NCc2ccco2)nnc1-c1cccnc1 | > 50 µM (inactive) | > 50 | > 50
O=C(NCCc1csc(-c2cccc(F)c2)n1)c1ccco1 | > 50 µM (inactive) | > 50 | > 50
